Tests used:
MDR P. aeruginosa = assay: MIC against CF isolates (Example 7, Table 18); assay type: cell-based; conditions: Pseudomonas aeruginosa, Multi-drug resistant
[1] = test system: MABSC / M. abscessus biofilms; assay: Activity against biofilms (Example 7); assay type: cell-based, Mycobacterium abscessus complex; conditions: AMT0130-8 MABSC CF-isolate
[2] = test system: Achromobacter spp. biofilm; assay: Activity against biofilms (Example 7); assay type: cell-based; conditions: tested up to 250 μg/mL
S. agalactiae = assay: Broth microdilution MIC (Example 5); assay type: cell-based; conditions: Streptococcus agalactiae
Procedure, shortened: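 MICs were determined by CLSI broth microdilution with serial two-fold drug dilutions in CLSI-prepared media. Inocula were set to 0.5 McFarland, diluted, and added to the plates. Bacteria were incubated at 35° C. for 16-24 hr, and endpoints were read visually per CLSI criteria.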

anaerobes = assay: MIC summary, anaerobes (Example 5); assay type: cell-based, Bacteroides fragilis and Clostridium difficile; conditions: read-out: MIC values across isolates
Procedure: Test and Comparator Agents: The test agents were stored at room temperature until assayed. All test agents were suspended and diluted in 100% dimethylsulfoxide (DMSO), and were ultimately tested at a final concentration of 0.06-64 μg/mL. The stock solutions were allowed to stand for at least 1 hr prior to use to auto-sterilize.
The susceptibility of anaerobic bacteria was determined by agar dilution using Brucella Agar (BD/BBL; Lot No. 5237692) supplemented with 5 μg/mL hemin (Sigma, St. Louis, MO; Lot No. 108K1088), 1 μg/mL Vitamin K1 and 5% (v/v) laked sheep blood (Cleveland Scientific, Bath, OH; Lot No. 322799).
Agar Dilution MIC Testing (Anaerobic Bacteria and Gonococci): MIC values for anaerobic bacteria were determined using a reference agar dilution method as described by CLSI (6). Organisms were grown at 35° C. in the Bactron II Anaerobic Chamber (Shel Lab, Cornelius, OR) for approximately 48 hr prior to the assay. Drug dilutions and drug-supplemented agar plates were prepared manually per CLSI (6). The plates were allowed to stand at room temperature for 1 hr to allow the agar surface to dry and pre-reduced for approximately 1 hr in the anaerobe chamber prior to inoculation. Each isolate was suspended to the equivalent of a 0.5 McFarland standard in Brucella broth using a turbidity meter (Dade Behring MicroScan, West Sacramento, CA). […] The MIC was read per CLSI guidelines (6).

NCC[C@H](O)C(=O)N[C@@H]1C[C@H](N)[C@@H](O[C@H]2O[C@H](CN)[C@@H](O)[C@H](O)[C@H]2O)[C@H](O)[C@H]1O[C@H]1O[C@H](CO)[C@@H](O)[C@H](N)[C@H]1O [Amikacin]
MIC (MDR P. aeruginosa; strain AGR14, P. aeruginosa): > 64 µg/mL
MIC (MDR P. aeruginosa; strain MR14, P. aeruginosa): > 64 µg/mL

CC(S)C(C)S.[Bi] (stereo not drawn) [MB-6, bismuth-2,3-butanedithiol]
Reductions in biofilm cell viability [1]: only very modest reductions
Reduction in viable biofilm cells [2]: 5 log

OCC(S)CS.[Bi] (stereo not drawn) [MB-2B, bismuth-2,3-dimercaptopropanol]
MIC (S. agalactiae; S. agalactiae MMX 3741, ERYR CCR): 4 µg/mL
MIC (S. agalactiae; S. agalactiae MMX 3743, ERYR CCR): 4 µg/mL
MIC (S. agalactiae; S. agalactiae MMX 4077, ERYR CCR): 4 µg/mL
MIC (S. agalactiae; S. agalactiae MMX 4079, ERYR CCR PenR MEMR): 8 µg/mL
MIC (anaerobes): 2 to 16 µg/mL
